Results taken from PubChem BioAssay (NCI).
Several values for one entry are separate records, joined by “and”; a condition that tells them apart may be missing. Equal entries are not always repeated.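 Test compounds were applied to cells in 96-well plates for 48 hours at 5 doses. The concentration for 50% growth inhibition is given as GI50. TGI: total growth inhibition.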

Assays:
P388 leukemia = assay: NCI tumour cell line growth inhibition, 48 h
SN12K1 renal = assay: NCI tumour cell line growth inhibition, 48 h

| SMILES | TGI (P388 leukemia) | TGI (SN12K1 renal) [µM] | GI50 (P388 leukemia) |
| --- | --- | --- | --- |
| COc1ccc(C(=O)/C(Br)=C/C(=O)O)cc1 | 53.7 µM | 22.6 | – |
| N#Cc1cn(C2OC(CO)C(O)C2O)c2ncnc(N)c12 (stereo not given) | 0.137 µM and 0.0463 µM | 3.13 | 0.00528 µM and 0.045 µM |
